Assay results from paper PMC10446491 (Frontiers in Immunology, 2023).

Tested on: lysis of EA
Assay: CH50 test of C5 proteins in 1.5% C5-depleted human sera with EA
Type: cell-based
Conditions: 1.5% C5-depleted human sera supplemented with C5 protein
Description: Recombinant human C5 R885 variants (rhC5 R885C and rhC5 R885H) were prepared in-house ( Supplementary Material ). Their activities on complement activation were examined by the CH50 test using 1.5% C5-depleted human sera supplemented with C5 R885 variants. […] Other procedures and data analysis are described in Section 2.3.
Supplementary Figure 2. Determination of CH50 of the hemolysis by C5 from different sources. Wild type C5 purified from human sera (hC5 compTech) (Complement Technologies), recombinant C5 wild type (rhC5 WT), recombinant C5 variant R885C (rhC5 R885C), and recombinant C5 variant R885H (rhC5 R885H). Various concentrations of protein C5 were added to 1.5% C5-depleted human sera followed by incubation with EA (0.5×) in GVB++ buffer. All data were from 2 plates (duplicate in each plate).

Substance | CH50 [nM]
C5 wt: Wild-type human C5, purified from human sera or recombinant (rhC5 wt) | 0.2 to 0.3
rhC5 R885C: Recombinant human C5 variant with single mutation R885C, prepared in-house | 5.2
rhC5 R885H: Recombinant human C5 variant with single mutation R885H, prepared in-house | 1.1
